Tested on: TNFα production
Test: Measure of TNFα production inhibitory activity (serum TNFα after LPS challenge in mice)
Assay type: in vivo
Conditions: female BALB/c mice, 7 weeks; test compound intravenous; LPS 100 μg/mouse intraperitoneal; blood 90 minutes after LPS; serum TNFα by ELISA; read-out: ED50 (50% effective dose) for inhibition of serum level of TNFα
Procedure: (i) Measure of TNFα Production Inhibitory Activity
Measure of TNFα production inhibitory activity was prepared according to procedures described previously (Kazuo Ohuchi, SEIBUTSUKAGAKUJIKKENKOZA, 12, 707 (1994) Hirokawa, Tokyo). Female mice (BALB/c, 7 weeks) were injected with test compounds via intravenous administration and with LPS (100 μg/mouse) (Bacto W. E. coli 055:B5; DIFCO Lab.) via in traperitoneal administration. At 90 minutes after LPS challenge, blood with heparin was obtained from abdominal aorta, and serum was stored at −80° C. Serum level of TNFα was determined by mouse cytokine ELISA kit (Genzyme). Inhibition and 50% effective dose (ED50) of test compounds were calculated as 100% of the difference of serum level of TNFα between in control and in LPS. ED50 of some compounds produced by the following examples were 0.01-100 mg/kg.

## CCCCCCCC(=O)N[C@@H](COP(=O)(O)O)c1ccccc1 [example 8]
  ED50: 2.6 mg/kg

Reference: patent US6495533B1, “Drugs containing phosphoric acid derivatives as the active ingredient” (Ono Pharmaceutical Co., Ltd., priority 1999, dated 2002)
